Assay results reported in patent US6423855B1, “Cytoprotective compounds” (Virginia Commonwealth University, priority 1996, dated 2002).
Values after ≈ are worked out from the molar mass of the structure shown. “Also recorded” adds a separate entry of the source. Read-outs that look alike come from different tables or passages of the source. Each block holds one compound with its values, some of them ahead of it.

Key:
[1] = small bowel storage in perfusate solution, tissue weight; design: species or system rat; details: 24 and 48 hours in the perfusate solution
Procedure: These drugs were also tested for their ability to enhance the preservation of tissues stored for subsequent transplantation. […] The graft was then transplanted into rats with or without intravenous (IV) infusion of 20 mg/kg PX-13 or mepacrine at the time of transplantation.

small bowel graft = experiment: small bowel transplantation ischemia-reperfusion injury; type: in vivo, rat
Procedure: (§1) These drugs were also tested for their ability to enhance the preservation of tissues stored for subsequent transplantation. The small bowel was removed from rats, washed free of luminal contents and the tissue stored in University of Wisconsin (UW) preservative media ±40 uM PX-13 or mepacrine for 48 hrs. The graft was then transplanted into rats with or without intravenous (IV) infusion of 20 mg/kg PX-13 or mepacrine at the time of transplantation.

[2] = system: larval forms of an animal filarid; experiment: molting of larval forms of a filarid
From the text: Infections caused by parasites constitute a major public health problem throughout the world for humans and animals, annually resulting in significant incidence of disease, suffering and death. Parasites such as those that cause malaria and other protozoal parasites of animals and humans are especially troublesome.

[3] = system: PLA2 activity in extracts of rat bowel; experiment: PLA2 activity in extracts of rat bowel; type: biochemical
[4] = peroxidation (malondialdehyde formation) of homogenized rat bowel
Procedure: as §1, with “of transplantation. Upon transplantation, the bowel is immediately injured as evidenced by tissue darkening within two minutes. […] Both PX-13 and mepacrine inhibit the peroxidation (malondialdehyde formation) of homogenized rat bowel, an indication that the membrane-stabilizing, PLA2-inhibitors, also have anti-oxidant activity.” for “of transplantation.”

human blood cells = experiment: preservation of whole blood (LDH and hemoglobin release); type: cell-based; details: 20 uM
Procedure: The effect of PX-13 and mepacrine on whole blood cell viability were tested as a function of time of storage.
Heparinized human blood was centrifuged at 400×g and the resulting plasma was removed and replaced with an equal volume of Dulbecco's medium. The resuspended cells were then incubated at 37° C. for 0-72 hrs. in a shaking water bath. At the indicated times, a 0.8 ml aliquot was removed and centrifuged at 400×g to sediment cells. Appearance of lactate dehydrogenase (LDH) and hemoglobin in the supernate was indicative of cell injury. PX-13 and mepacrine stabilized cells and decreased the injury as evidenced by diminished levels of LDH and hemoglobin in the supernate. This is expressed as percent protection.

[5] = target: T1, purified human disc type II, PLA2 (Homo sapiens, UniProt P14555); experiment: inhibition of purified human disc type II PLA2; type: biochemical
T1 construct: the purified human disc type II, PLA2; from tissue; host or cells: human vertebral (herniated) disc
T1 sequence (P14555 21-144): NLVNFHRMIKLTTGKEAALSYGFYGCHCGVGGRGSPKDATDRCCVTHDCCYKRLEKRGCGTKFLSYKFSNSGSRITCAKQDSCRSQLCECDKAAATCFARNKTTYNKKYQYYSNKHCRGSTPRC
Procedure: Both PX-13 and PX-18 inhibit the purified human disc type II, PLA2. PLA2 activity was measured as described in Franson et al., Prostaglandins, Leukotrienes and Essential Fatty Acids, 43:63-70, 1991, which is herein incorporated by reference in its entirety.

basophils = experiment: histamine release from basophils (anti-human IgE, diluted blood); type: cell-based
Procedure: The protocol to evaluate the effects of PX-18 on histamine release is described below. Freshly drawn heparinized blood from donors non-medicated for 3 days is diluted 1:5 with PBS containing 1% human serum albumin (diluent). Test drugs are diluted in diluent to 10 times final concentration, and 25 μl per well is added to duplicate wells of round-bottomed microtiter plates. Generally 3-fold dilutions of drug are examined four or five times. 200 μl of diluted blood is then added to each well. 5 minutes later, […] of rabbit anti-human IgE (purchased from Dako) is added per well, to give final concentrations of 1/400 and 1/1200 of antibody. Unstimulated (background release wells) have 25 μl of diluent added. Plates are gently tapped for mixing, then incubated for 30 minutes. After incubation, plates are cooled on ice, spun down in a refrigerated centrifuge, and replaced on ice. 100 μl plasma is removed from each well for assay, and placed in a 1.5 ml Eppendorf tube containing acetylation reagent. Following acetylation, the histamine adduct is quantitated by a sensitive and specific commercial competitive assay, utilizing the competition of enzyme conjugated acetyl-histamine with sample analyte for binding to a specific antibody on the solid phase. A sample of blood is also lysed by repeated freeze/thaw to determine total blood histamine. Results are expressed as a percentage of total blood histamine release. In an acceptable assay maximal release is greater than 45% and background release is less than 15%. Experiments are performed in duplicate or triplicate using separate blood donors.

[6] = system: lipoxygenase and cyclooxygenase; experiment: lipoxygenase and cyclooxygenase metabolites with exogenous arachidonic acid; type: cell-based; details: exogenous arachidonic acid added
From the text: The comparison is to MK 592, a selective lipoxygenase inhibitor.

[7] = system: lipoxygenase products such as LTC4; experiment: whole blood production of lipoxygenase products; type: cell-based, human; details: comparison to MK 592
Procedure: (§2) The following protocol was employed to evaluate effects of PX-18 on production of leukotrienes and prostaglandins by blood cells under basal conditions, with ionophore stimulation of cyclooxygenase type I, and with lipopolysaccharide (LPS) induction of cyclooxygenase type II. Freshly-obtained heparinized blood from medication-free donors is diluted 1:1 with RPMI, and aliquoted in 0.6 ml amounts in sterile polypropylene 12×75 […] tubes. Test drugs are added at appropriate concentrations and diluted in saline with 1% human serum albumin. Control tubes have only diluent or drug vehicle added. Drugs are added five minutes prior to addition of stimulus, at 100×concentrations, (6 μl volumes). This is replicated for 3 racks of tubes, A thru C. A has no stimulus added, and has a 30 minute and 6 hr. tube for each drug concentration. B has 20 uM of the calcium ionophore A23187 added, and is incubated at 37° C. for 30 minutes. C has 5 ug/ml of E. coli strain Bort LPS added, and is incubated at 37° C. for 6 hours. At the end each time period, the appropriate tubes are placed on ice, centrifuged, and 0.4 ml of plasma carefully decanted into a tube containing formic acid and BHT to stop all reactions and preserve eicosanoid products. These tubes are then frozen at −70° C. for up to one week, then applied to Sep-pac mini columns and extracted into methanol. […]

[8] = system: basal production of prostaglandins; experiment: whole blood eicosanoid release, basal; type: cell-based, human; details: no stimulus
Procedure: as §2

cyclooxygenase I = experiment: whole blood eicosanoid release, ionophore stimulation; type: cell-based, human; details: 20 uM A23187, 30 minutes
Procedure: as §2

[9] = system: drug-resistant P. falciparum strains; experiment: growth of the same drug-resistant P. falciparum strains (PX-18); type: cell-based, Plasmodium falciparum; details: for IC50: two strains as described above, which value for which strain not stated
cyclooxygenase II = experiment: whole blood eicosanoid release, LPS induction; type: cell-based, human; details: 5 ug/ml E. coli LPS, 6 hours, 37° C.
Procedure: as §2

pancreatin = experiment: degradation in vitro by pancreatin; type: in vitro ADME; details: commercial pancreatic enzyme preparation (Sigma)
From the text: The compounds of the present invention are not generally hydrolyzed by pancreatic enzymes and are different from glycerol-based compounds in terms of their chemistry and metabolism. […] The resistance of PX-13 and PX-18 to metabolism by pancreatic enzymes supports their stability after oral administration.

Structure (SMILES): CCN(CC)CCCC(C)Nc1c2ccc(Cl)cc2nc2ccc(OC)cc12 (centres unmarked) [mepacrine, reference compound]
weight of the tissues after storage [1]: reduced weight
gross and microscopic injury to tissue (small bowel graft; 40 uM in UW media 48 hrs, with or without 20 mg/kg IV at transplantation): dramatically reduced
protection against ischemia and reperfusion injury (small bowel graft; small bowel transplantation): protect; also recorded: some protection although not as great as with PX-13
molting of larval forms [2]: significantly reduced
inhibition of PLA2 activity [3]: inhibited
peroxidation (malondialdehyde formation) [4]: inhibit
Percent Protection Hemoglobin (human blood cells; 48 hr): 61%
Percent Protection LDH (human blood cells; 48 hr, 37° C.): 58%
Percent Protection Hemoglobin (human blood cells; 72 hr): 45%
Percent Protection LDH (human blood cells; 72 hr): 27%

IC50 [5]: 300 nM
degradation in vitro by pancreatin (pancreatin): resistant to degradation
Structure (SMILES): CCCCCCCC/C=C\CCCCCCCC(=O)OCCN(CCOC(=O)CCCCCCC/C=C\CCCCCCCC)CCS(=O)(=O)O [PX-18, 2-[N,N-Bis(2-oleoyloxyethyl)amino]-1-ethanesulfonic acid]
efficacy relative to cromolyn (basophils): more efficacious than cromolyn
potency relative to epinephrine (basophils): equipotent to epinephrine
degranulation of basophils (basophils; stimulus antibody to surface-bound IgE): inhibits
production of lipoxygenase and cyclooxygenase metabolites [6]: does not inhibit
production of lipoxygenase products such as LTC4 [7]: inhibited
inhibition of basal production of prostaglandins [8]: even less or no inhibition
inhibition of constitutive cyclooxygenase I (cyclooxygenase I): less inhibition
effectiveness relative to PX-13 [9]: 10 times
IC50 ([9]; Plasmodium falciparum, read-out: IC50): 1.3 µg/mL (≈ 1.75 µM)
IC50 [9]: 2.4 µg/mL (≈ 3.23 µM)
inhibition of cytokine-inducible cyclooxygenase II (cyclooxygenase II): strongly inhibit
